{"source": "patent US11959486B2", "about": "“Stable liquid formulation of AMG 416 (etelcalcetide)” (AMGEN INC., priority 2013, dated 2024)", "assay": "Stability of liquid formulations over range of pH 2-6 in succinate-buffered saline, HPLC purity, with extrapolation (Example 3)", "format": "physicochemical", "conditions": "for Observed degradation at 28 days / Calculated Degradation at 1 y RT / Calculated Degradation at 2 y 5° C. / Calculated Degradation at 2 y RT / Calculated Degradation at 360 d: 10 mg/mL", "method": "The solution was divided evenly into five 4 mL portions which were adjusted to pH 2, 3, 4, 5 and 6, respectively, with NaOH and HCl as needed. Three 1 mL solutions were aliquoted from each portion and incubated at 2-8° C., room temperature (about 25° C.), and 40° C., respectively. The remaining 1 mL solution in each aliquot was diluted with pH 4.5 succinate buffered saline to 4 mL of 2.5 mg/mL peptide concentration, pH adjusted, and incubated in the same manner.\nBased on the extent of degradation at 28 days, predictions of the extent of degradation were calculated as described, supra. Bolded values indicate conditions which show less than 10% degradation, and which may be preferred for a liquid formulation. Conditions where the sample at 28 days show slightly higher purity than the initial data are presented as 0.0% for all projections.\nAt each pH value, the degradation data for each of three temperatures is compared to data from the other two temperatures to calculate the observed acceleration. The predicted acceleration is by simple application of Arrhenius principles as described above.", "data": [{"molecule": "CC(=O)N[C@H](CSSC[C@H](N)C(=O)O)C(=O)N[C@H](C)C(=O)N[C@H](CCCNC(=N)N)C(=O)N[C@H](CCCNC(=N)N)C(=O)N[C@H](CCCNC(=N)N)C(=O)N[C@H](C)C(=O)N[C@H](CCCNC(=N)N)C(N)=O", "note": "[AMG 416, N-acetyl-D-cysteinyl-D-alanyl-D-arginyl-D-arginyl-D-arginyl-D-alanyl-D-arginamide disulfide with L-cysteine]", "values": [{"measurement": "Observed degradation at 28 days", "setting": "pH 2, 2-8° C.", "result": 0.3, "unit": "%"}, {"measurement": "Observed degradation at 28 days", "setting": "pH 2, 40° C.", "result": 5.3, "unit": "%"}, {"measurement": "Observed degradation at 28 days", "setting": "pH 2, RT", "result": 0.6, "unit": "%"}, {"measurement": "Calculated Degradation at 1 y RT", "setting": "pH 2, from 2-8° C. data", "result": 15.4, "unit": "%"}, {"measurement": "Calculated Degradation at 2 y 5° C.", "setting": "pH 2, from 2-8° C. data", "result": 7.7, "unit": "%"}, {"measurement": "Calculated Degradation at 2 y RT", "setting": "pH 2, from 2-8° C. data", "result": 30.7, "unit": "%"}, {"measurement": "Calculated Degradation at 360 d", "setting": "pH 2, from 2-8° C. data", "result": 3.8, "unit": "%"}, {"measurement": "Calculated Degradation at 1 y RT", "setting": "pH 2, from 40° C. data", "result": 17.1, "unit": "%"}, {"measurement": "Calculated Degradation at 2 y 5° C.", "setting": "pH 2, from 40° C. data", "result": 8.6, "unit": "%"}, {"measurement": "Calculated Degradation at 2 y RT", "setting": "pH 2, from 40° C. data", "result": 34.2, "unit": "%"}, {"measurement": "Calculated Degradation at 360 d", "setting": "pH 2, from 40° C. data", "result": 68.4, "unit": "%"}, {"measurement": "Calculated Degradation at 1 y RT", "setting": "pH 2, from RT data", "result": 8.1, "unit": "%"}, {"measurement": "Calculated Degradation at 2 y 5° C.", "setting": "pH 2, from RT data", "result": 4.0, "unit": "%"}, {"measurement": "Calculated Degradation at 2 y RT", "setting": "pH 2, from RT data", "result": 16.1, "unit": "%"}, {"measurement": "Calculated Degradation at 360 d", "setting": "pH 2, from RT data", "result": 8.1, "unit": "%"}, {"measurement": "Observed degradation at 28 days", "setting": "pH 3, 2-8° C.", "result": "−0.2", "unit": "%"}, {"measurement": "Observed degradation at 28 days", "setting": "pH 3, 40° C.", "result": 1.1, "unit": "%"}, {"measurement": "Observed degradation at 28 days", "setting": "pH 3, RT", "result": 0.2, "unit": "%"}, {"measurement": "Calculated Degradation at 1 y RT", "setting": "pH 3, from 2-8° C. data", "result": 0.0, "unit": "%"}, {"measurement": "Calculated Degradation at 2 y 5° C.", "setting": "pH 3, from 2-8° C. data", "result": 0.0, "unit": "%"}, {"measurement": "Calculated Degradation at 2 y RT", "setting": "pH 3, from 2-8° C. data", "result": 0.0, "unit": "%"}, {"measurement": "Calculated Degradation at 360 d", "setting": "pH 3, from 2-8° C. data", "result": 0.0, "unit": "%"}, {"measurement": "Calculated Degradation at 1 y RT", "setting": "pH 3, from 40° C. data", "result": 3.5, "unit": "%"}, {"measurement": "Calculated Degradation at 2 y 5° C.", "setting": "pH 3, from 40° C. data", "result": 1.8, "unit": "%"}, {"measurement": "Calculated Degradation at 2 y RT", "setting": "pH 3, from 40° C. data", "result": 7.0, "unit": "%"}, {"measurement": "Calculated Degradation at 360 d", "setting": "pH 3, from 40° C. data", "result": 14.1, "unit": "%"}, {"measurement": "Calculated Degradation at 1 y RT", "setting": "pH 3, from RT data", "result": 2.6, "unit": "%"}, {"measurement": "Calculated Degradation at 2 y 5° C.", "setting": "pH 3, from RT data", "result": 1.3, "unit": "%"}, {"measurement": "Calculated Degradation at 2 y RT", "setting": "pH 3, from RT data", "result": 5.1, "unit": "%"}, {"measurement": "Calculated Degradation at 360 d", "setting": "pH 3, from RT data", "result": 2.6, "unit": "%"}, {"measurement": "Observed degradation at 28 days", "setting": "pH 4, 2-8° C.", "result": "−0.1", "unit": "%"}, {"measurement": "Observed degradation at 28 days", "setting": "pH 4, 40° C.", "result": 14.3, "unit": "%"}, {"measurement": "Observed degradation at 28 days", "setting": "pH 4, RT", "result": 0.7, "unit": "%"}, {"measurement": "Calculated Degradation at 1 y RT", "setting": "pH 4, from 2-8° C. data", "result": 0.0, "unit": "%"}, {"measurement": "Calculated Degradation at 2 y 5° C.", "setting": "pH 4, from 2-8° C. data", "result": 0.0, "unit": "%"}, {"measurement": "Calculated Degradation at 2 y RT", "setting": "pH 4, from 2-8° C. data", "result": 0.0, "unit": "%"}, {"measurement": "Calculated Degradation at 360 d", "setting": "pH 4, from 2-8° C. data", "result": 0.0, "unit": "%"}, {"measurement": "Calculated Degradation at 1 y RT", "setting": "pH 4, from 40° C. data", "result": 45.8, "unit": "%"}, {"measurement": "Calculated Degradation at 2 y 5° C.", "setting": "pH 4, from 40° C. data", "result": 22.9, "unit": "%"}, {"measurement": "Calculated Degradation at 2 y RT", "setting": "pH 4, from 40° C. data", "result": 91.7, "unit": "%"}, {"measurement": "Calculated Degradation at 360 d", "setting": "pH 4, from 40° C. data", "result": ">100", "unit": "%"}, {"measurement": "Calculated Degradation at 1 y RT", "setting": "pH 4, from RT data", "result": 8.6, "unit": "%"}, {"measurement": "Calculated Degradation at 2 y 5° C.", "setting": "pH 4, from RT data", "result": 4.3, "unit": "%"}, {"measurement": "Calculated Degradation at 2 y RT", "setting": "pH 4, from RT data", "result": 17.1, "unit": "%"}, {"measurement": "Calculated Degradation at 360 d", "setting": "pH 4, from RT data", "result": 8.6, "unit": "%"}, {"measurement": "Observed degradation at 28 days", "setting": "pH 5, 2-8° C.", "result": 0.3, "unit": "%"}, {"measurement": "Observed degradation at 28 days", "setting": "pH 5, 40° C.", "result": 34.9, "unit": "%"}, {"measurement": "Observed degradation at 28 days", "setting": "pH 5, RT", "result": 5.6, "unit": "%"}, {"measurement": "Calculated Degradation at 1 y RT", "setting": "pH 5, from 2-8° C. data", "result": 13.8, "unit": "%"}, {"measurement": "Calculated Degradation at 2 y 5° C.", "setting": "pH 5, from 2-8° C. data", "result": 6.9, "unit": "%"}, {"measurement": "Calculated Degradation at 2 y RT", "setting": "pH 5, from 2-8° C. data", "result": 27.6, "unit": "%"}, {"measurement": "Calculated Degradation at 360 d", "setting": "pH 5, from 2-8° C. data", "result": 3.5, "unit": "%"}, {"measurement": "Calculated Degradation at 1 y RT", "setting": "pH 5, from 40° C. data", "result": ">100", "unit": "%"}, {"measurement": "Calculated Degradation at 2 y 5° C.", "setting": "pH 5, from 40° C. data", "result": 55.9, "unit": "%"}, {"measurement": "Calculated Degradation at 2 y RT", "setting": "pH 5, from 40° C. data", "result": ">100", "unit": "%"}, {"measurement": "Calculated Degradation at 360 d", "setting": "pH 5, from 40° C. data", "result": ">100", "unit": "%"}, {"measurement": "Calculated Degradation at 1 y RT", "setting": "pH 5, from RT data", "result": 71.4, "unit": "%"}, {"measurement": "Calculated Degradation at 2 y 5° C.", "setting": "pH 5, from RT data", "result": 35.7, "unit": "%"}, {"measurement": "Calculated Degradation at 2 y RT", "setting": "pH 5, from RT data", "result": ">100", "unit": "%"}, {"measurement": "Calculated Degradation at 360 d", "setting": "pH 5, from RT data", "result": 71.4, "unit": "%"}, {"measurement": "Observed degradation at 28 days", "setting": "pH 6, 2-8° C.", "result": 1.9, "unit": "%"}, {"measurement": "Observed degradation at 28 days", "setting": "pH 6, 40° C.", "result": 45.1, "unit": "%"}, {"measurement": "Observed degradation at 28 days", "setting": "pH 6, RT", "result": 26.9, "unit": "%"}, {"measurement": "Calculated Degradation at 1 y RT", "setting": "pH 6, from 2-8° C. data", "result": 95.7, "unit": "%"}, {"measurement": "Calculated Degradation at 2 y 5° C.", "setting": "pH 6, from 2-8° C. data", "result": 47.8, "unit": "%"}, {"measurement": "Calculated Degradation at 2 y RT", "setting": "pH 6, from 2-8° C. data", "result": ">100", "unit": "%"}, {"measurement": "Calculated Degradation at 360 d", "setting": "pH 6, from 2-8° C. data", "result": 23.9, "unit": "%"}, {"measurement": "Calculated Degradation at 1 y RT", "setting": "pH 6, from 40° C. data", "result": ">100", "unit": "%"}, {"measurement": "Calculated Degradation at 2 y 5° C.", "setting": "pH 6, from 40° C. data", "result": 72.2, "unit": "%"}, {"measurement": "Calculated Degradation at 2 y RT", "setting": "pH 6, from 40° C. data", "result": ">100", "unit": "%"}, {"measurement": "Calculated Degradation at 360 d", "setting": "pH 6, from 40° C. data", "result": ">100", "unit": "%"}, {"measurement": "Calculated Degradation at 1 y RT", "setting": "pH 6, from RT data", "result": ">100", "unit": "%"}, {"measurement": "Calculated Degradation at 2 y 5° C.", "setting": "pH 6, from RT data", "result": ">100", "unit": "%"}, {"measurement": "Calculated Degradation at 2 y RT", "setting": "pH 6, from RT data", "result": ">100", "unit": "%"}, {"measurement": "Calculated Degradation at 360 d", "setting": "pH 6, from RT data", "result": ">100", "unit": "%"}, {"measurement": "extrapolated degradation after 2 years at room temperature", "setting": "2.5 or 10 mg/mL solutions at pH 3", "result": "less than 10%"}, {"measurement": "pH of least degradation", "setting": "28 day point, 10 and 2.5 mg/mL", "result": "approximately 3.0"}]}]}
